A short description of this assay: modulators of MEP2-GFP levels in yeast, dose response, S. cerevisiae, flow cytometry GFP, MLPCN hits (AID 2742).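 Note: GFP tag reports level of MEP2 protein as a downstream target of TOR signalling.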 The following applies: S. cerevisiae MEP2-GFP strain, flow cytometry fluorescence, 3 h; at 33 µM (top of the series). A general note: A flow cytometer gives signals particle by particle.

Activity calls are given as the source filed them.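 Rule for the calls: active = fitted half-maximal concentration for changing background-corrected GFP signal at or below a set limit; inactive = the rest.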

Consider `C#CCOCCOCCOCCNc1nc(N2CCN(C(=O)CCCCCCCCCCNC(=O)[C@H](CCCCN)n3cc(CCCC(=O)O)nn3)CC2)nc(N2CCN(C(=O)CCCCCCCCCCNC(=O)[C@H](CCCN=C(N)N)n3cc(C[C@@H](C)CC)nn3)CC2)n1`, for which the GFP fluorescence (kMESF), higher = increase was 3.78 kMESF (inactive).

Take `COc1cc(/C=C2\C(=O)N(CCC#N)N=C2C)c(Br)cc1OC(C)C`: the GFP fluorescence (kMESF), higher = increase was 4.57 kMESF (inactive). Then `CCCOc1ccc(C(=O)NNC(=S)NC(=O)c2ccccc2)cc1`, with 4.61 kMESF (inactive); and `C#CCOCCOCCOCCNc1nc(N2CCN(C(=O)CCCCCCCCCCNC(=O)[C@H](CCCCN)n3cc(CCO)nn3)CC2)nc(N2CCN(C(=O)CCCCCCCCCCNC(=O)[C@H](CCCN=C(N)N)n3cc(C[C@@H](C)CC)nn3)CC2)n1`, with 3.54 kMESF (inactive). As for `CCCCCCCCC/C(=N\O)c1ccccn1`, the figure is 3.61 kMESF (inactive); as for `O=C(c1ccc(C(=O)N2CCCc3ccccc32)s1)N1CCCc2ccccc21`, 3.28 kMESF (inactive); as for `Cc1ccccc1N=Nc1ccc(O)c2ncccc12`, 3.51 kMESF (inactive). As for `Cc1ccnc(N2C(=O)c3cccc4c([N+](=O)[O-])ccc(c34)C2=O)c1`, the figure is 24.6 kMESF (inactive); as for `CCC1(c2ccccc2)ON(c2c(Br)cccc2Br)C1=O` (stereo not given), 3.17 kMESF (inactive). In the case of `COc1ccc(N2CCN(C(=O)c3ccc(Br)cc3)CC2)c([N+](=O)[O-])c1`, the GFP fluorescence (kMESF), higher = increase was 2.28 kMESF (inactive).

Take `CCCCS(=O)(=O)/C=C\C=C/S(=O)(=O)CCCC`: the GFP fluorescence (kMESF), higher = increase was 5.41 kMESF (inactive).

Take `CCc1ccc(/C=C/C(=O)c2cc(Br)ccc(=O)c2O)cc1`: the GFP fluorescence (kMESF), higher = increase is 5.16 kMESF (inactive). Then `O=[N+]([O-])c1ccc(O)c(/C=N/Nc2ccccn2)c1`, with 5.62 kMESF (inactive); and `COc1ccc(C(=O)NC(=S)NNC(=O)c2cnccn2)cc1`, with 3.91 kMESF (inactive).

Regarding `CCN(CC)c1ccc2cc(-c3nc4ccccc4[nH]3)c(=O)oc2c1`, the GFP fluorescence (kMESF), higher = increase is 6.39 kMESF (inactive). As for `CC(C)[C@@]1(c2ccccc2)ON(c2ccccc2C(F)(F)F)C1=O`, the figure is 2.37 kMESF (inactive); as for `Cc1ccc2[nH]cc(/C=C/c3cc[n+](C)cc3)c2c1`, 4.2 kMESF (inactive). Then `Cc1ccc(C)c(/C=C/C(=O)c2ccccc(=O)c2O)c1`, with -0.95 kMESF (inactive); and `COc1cccc(/C=C2\C(=O)N(c3cccc(C)c3)C(=O)c3ccccc32)c1`, with 4.32 kMESF (inactive).

Take `O=S1(=O)C=C(Sc2nc3ccccc3s2)c2ccccc21`: the GFP fluorescence (kMESF), higher = increase is 5.18 kMESF (inactive). As for `CC(=O)c1ccc(N2CCN(C(=O)c3ccc(Br)cc3)CC2)c(F)c1`, the figure is 2.85 kMESF (inactive); as for `CC(C)C[C@]1(c2ccccc2)ON(c2ccccc2C(F)(F)F)C1=O`, 2.97 kMESF (inactive); as for `Cc1ccc2c(nc3s/c(=C\c4ccc(-c5ccccc5C(=O)O)o4)c(=O)n32)c1C`, 25.5 kMESF (inactive). Then `Nc1ccccc1SC(C[N+](=O)[O-])c1ccccc1` (stereo not given), with 3.67 kMESF (inactive); and `CC1=C/C(=N\OS(=O)(=O)c2ccccc2)C(C(C)C)=CC1=O`, with 8.38 kMESF (inactive). As for `CCN(CC)c1ccc(/C=C2/C(=O)c3ccc(C(=O)O)cc3C2=O)cc1`, the figure is 3.08 kMESF (inactive).

`Oc1ccc(Br)cc1/C=N/Nc1ccccn1`: the GFP fluorescence (kMESF), higher = increase was 3.94 kMESF (inactive). As for `CCOC(=O)CCS(=O)(=O)c1nc(-c2ccccc2)cc(C(F)(F)F)n1`, the figure is 7.24 kMESF (inactive); as for `Cc1ccc(/C(N)=N/OC(=O)c2ccc(F)cc2)cc1`, 2.2 kMESF (inactive).

In the case of `C[C@H]1C[C@@H](C)C(=O)[C@@H]([C@H](O)CC2CC(=O)NC(=O)C2)C1`, the GFP fluorescence (kMESF), higher = increase was 3.18 kMESF (inactive). As for `O=c1c2sc(-c3ccccc3)cc2nc2n1CCC2`, the figure is 3.03 kMESF (inactive); as for `COc1cccc(N=Cc2nc(-c3ccccc3)oc2OC(C)=O)c1`, 3.64 kMESF (inactive); as for `COc1ccc([C@]2(C(C)C)ON(c3ccccc3C(F)(F)F)C2=O)cc1`, 2.67 kMESF (inactive).

As for `COc1ccc(C(=O)NC(=S)NNC(=O)CCc2ccccc2)cc1`, the GFP fluorescence (kMESF), higher = increase is 3.68 kMESF (inactive). For the molecule `CCC(=O)Oc1oc(-c2ccccc2)nc1C=Nc1ccc(C)cc1`, the GFP fluorescence (kMESF), higher = increase is 3.2 kMESF (inactive). On to `N#Cc1c2ccc([N+](=O)[O-])cc2[n+]([O-])n1-c1ccccc1`, for which the GFP fluorescence (kMESF), higher = increase is 1.82 kMESF (inactive).

`O=C(Nc1cccc(-c2csc(Nc3ccccc3)n2)c1)c1ccccc1`: the GFP fluorescence (kMESF), higher = increase is 2.61 kMESF (inactive). Then `CCOC(=O)CSC1=NC(=O)/C(=C/c2ccc(OC)cc2)S1`, with 1.26 kMESF (inactive); and `O=C(O)c1cc[c]([Hg][Cl])cc1`, with 4.47 kMESF (inactive); and `O=C1C=CC(=O)N1c1ccc(OC(F)F)cc1`, with 3.81 kMESF (inactive). Turning to `O=C1C=CC(=O)N1c1ccc(O)cc1`, the GFP fluorescence (kMESF), higher = increase was 6.77 kMESF (inactive). For the molecule `Cc1cc(C)nc(S/C=C/C(=O)c2ccccc2)n1`, the GFP fluorescence (kMESF), higher = increase is 3.2 kMESF (inactive). As for `Cc1ccc(S(=O)(=O)/N=C(\Sc2ccccc2)c2ccccc2)cc1`, the figure is 3.88 kMESF (inactive); as for `CN(C)c1ccc(/C=C/c2cc[n+](C)cc2)cc1`, 2.76 kMESF (inactive). For the molecule `O=C(Nc1ccc(O)cc1)C1CCCN1S(=O)(=O)c1ccc(F)cc1` (stereo not given), the GFP fluorescence (kMESF), higher = increase was 1.62 kMESF (inactive). For `CC(=O)[C@]1(O)Cc2c(O)c3c(c(O)c2[C@@H](O[C@H]2C[C@H](N)[C@H](O)[C@H](C)O2)C1)C(=O)c1ccccc1C3=O`, the GFP fluorescence (kMESF), higher = increase is 4.71 kMESF (inactive). For the molecule `COc1ccc(N=Cc2nc(-c3ccccc3)oc2OC(=O)c2ccccc2)cc1`, the GFP fluorescence (kMESF), higher = increase was 2.68 kMESF (inactive).

As for `CC(Oc1ccc(Br)cc1)C(=O)Nc1nc(-c2ccccn2)cs1` (stereo not given), the GFP fluorescence (kMESF), higher = increase is 4.68 kMESF (inactive). Regarding `CCCN1CCc2c(sc(NC(=S)NC(=O)c3ccccc3)c2C#N)C1`, the GFP fluorescence (kMESF), higher = increase was 4.04 kMESF (inactive). For the molecule `C=CCOc1ccc(C(=O)/C=C2/C(=O)Nc3ccccc32)cc1`, the GFP fluorescence (kMESF), higher = increase was 3.85 kMESF (inactive).

With `C=CCN1C(=O)/C(=C/c2ccc(-c3ccc(F)cc3)o2)SC1=S`, the GFP fluorescence (kMESF), higher = increase is 8.29 kMESF (inactive). Then `Cc1cccc(/C=C/C(=O)c2ccc([N+](=O)[O-])o2)c1`, with 5.78 kMESF (inactive); and `CC1=NNC(=O)/C1=C\c1cn(-c2ccccc2)nc1-c1cccs1`, with 3.14 kMESF (inactive); and `O=C(CS(=O)c1ccccc1[N+](=O)[O-])Oc1ccc(Br)cc1` (stereo not given), with 4.43 kMESF (inactive). As for `Clc1cccc(CN2COc3c(cc(Cl)c4cccnc34)C2)c1`, the GFP fluorescence (kMESF), higher = increase was 8.07 kMESF (inactive). Regarding `CCOC(=O)CS(=O)(=O)c1nc(-c2ccc(F)cc2)cc(C(F)(F)F)n1`, the GFP fluorescence (kMESF), higher = increase was 5.21 kMESF (inactive). Then `COc1cccc(/C=C/C(=O)c2c(O)cc(C)oc2=O)c1O`, with 4.26 kMESF (inactive); and `Cc1ccc(O)c(N=Nc2nccs2)c1`, with 2.87 kMESF (inactive). As for `N/C(=N\OC(=O)c1ccc(Cl)cc1Cl)c1ccccc1`, the GFP fluorescence (kMESF), higher = increase is 3.21 kMESF (inactive).

Turning to `Cc1ccc(C(=O)O/N=C(\N)Cc2cccs2)c(Cl)c1`, the GFP fluorescence (kMESF), higher = increase was 4.31 kMESF (inactive).

As for `CC(=O)SC(C[N+](=O)[O-])c1cn(C(C)=O)c2ccccc12` (stereo not given), the GFP fluorescence (kMESF), higher = increase is 6.37 kMESF (inactive). `C[n+]1ccc(/C=C/c2c[nH]c3ccccc23)cc1`: the GFP fluorescence (kMESF), higher = increase is 7.26 kMESF (inactive). In the case of `CCC(C)/C(C)=N/NC(=O)c1ccc(COc2ccc(Cl)c(C)c2)cc1` (stereo not given), the GFP fluorescence (kMESF), higher = increase is 2.48 kMESF (inactive).

As to `O=C(Nc1nnc(-c2ccc(F)cc2)o1)c1cc(Cl)sc1Cl`, the GFP fluorescence (kMESF), higher = increase was 3.38 kMESF (inactive). `c1ccc(-c2cccc(-c3ccccn3)n2)nc1`: the GFP fluorescence (kMESF), higher = increase is 2.86 kMESF (inactive).

Turning to `CC(C)(C)C(=O)NC(=S)NNC(=O)c1sc2ccccc2c1Cl`, the GFP fluorescence (kMESF), higher = increase is 4.68 kMESF (inactive). Turning to `COc1cccc2c(=O)c(C(=O)NCc3cccs3)c[nH]c12`, the GFP fluorescence (kMESF), higher = increase was 1.57 kMESF (inactive). Then `CC(=O)N(C1=C(Cl)C(=O)c2ccccc2C1=O)C1CCCCC1`, with -3.41 kMESF (inactive); and `CC(=O)Nc1ncnc2c1c(-c1ccc(Cl)cc1)nn2C(C)(C)C`, with 2.08 kMESF (inactive); and `CC(=O)NN1C(=O)/C(=C/c2ccc(Br)o2)SC1=S`, with -0.17 kMESF (inactive).

As for `Cc1ccc(/C=c2\sc3nc(-c4cccs4)nn3c2=O)o1`, the GFP fluorescence (kMESF), higher = increase was 8.12 kMESF (inactive).

Regarding `CC1=CC(=O)C(C(C)C)=C/C1=N/OS(=O)(=O)c1ccccc1`, the GFP fluorescence (kMESF), higher = increase was 3.47 kMESF (inactive). As for `O=C(O)C1Sc2[nH]c(=O)sc2C2c3cc(Br)ccc3OC(=O)C12` (stereo not given), the figure is 4.8 kMESF (inactive); as for `N#Cc1ccc(N=c2ssnc2Cl)cc1`, 3.37 kMESF (inactive). As for `O=C(COc1ccccc1)NNC(=S)NC(=O)c1ccc(Cl)cc1Cl`, the figure is 4.07 kMESF (inactive).

These data come from PubChem BioAssay AID2742 (NMMLSC, 2010).
